Experimental data published in US10611750B2, “Tetrahydroquinoline compositions as bet bromodomain inhibitors” (FORMA Therapeutics, Inc., priority 2013, dated 2020).

How the values were obtained:
[1] = molecular target: T1, BRD4 Bromodomain 1 (BRD4 BD1) (Homo sapiens, UniProt O60885); assay: AlphaScreen binding assay, BRD4 BD1; conditions: His-tagged BRD4 BD1 50 nM, biotinylated H4 (1-21) K5/8/12/16 tetra-acetylated peptide 50 nM, compounds listed under IC50 range headings
T1 construct: 44-168 and BRD4 BD2
Protocol: The binding of Example compounds to BRD4 Bromodomain 1 and BRD4 Bromodomain 2 was assessed using 384-well AlphaScreen assay technology. His-epitope tagged BRD4 BD144-168 and BRD4 BD2333-460 were cloned, expressed, and purified to homogeneity. BRD4 BD1 and BRD4 BD2 binding and inhibition was assessed by monitoring the engagement of biotinylated Histone H4 (1-21) K5/8/12/16 tetra-acetylated peptide with the targets using the AlphaScreen technology (PerkinElmer). Specifically, in a 384-well black or white flat bottom plate, BRD4 BD1 (50 nM final) or BRD4 BD2 (100 nM final) was combined with peptide (50 nM final for BD1 or 100 nM final for BD2) in 50 mM HEPES (pH 7.3), 100 mM NaCl, 0.1% (w/v) BSA, and 0.01% (w/v) Triton X-100 either in the presence of DMSO (final 1.25% DMSO) or compound dilution series in DMSO. Alpha streptavidin donor beads and Nickel-chelate acceptor beads were added to a final concentration of 10 μg/ml each. After a minimum of 1 hour equilibration, plates were read on a BMG PHERAstar FS multi-label reader (BMG LabTech). The half maximal inhibitory concentration (IC50) values were calculated using IDBS Activity Base software with a four parameter logistic curve fit by the equation y=A+((B−A)/(1+((C/x)^D))), wherein A denotes the bottom plateau of the curve, B denotes the top plateau of the curve, C denotes the x value at the middle of the curve, D denotes the slope factor, x denotes the original known x values, and y denotes the original known y values. Data was fitted using the Levenburg Marquardt algorithm.

[2] = test system: acute myelocytic leukemia (AML) cell line MV4-11; assay: Oncology cell growth assay (3-day proliferation, CellTiter-Glo); format: cell-based; conditions: Homo sapiens, MV4-11, 72 h, MV4-11 cells, 3000 cells/well, compounds listed under IC50 range headings, read-out: MV411 IC50 (gIC50, inhibition of proliferation)
Protocol: The impact of Example compounds on cancer cell proliferation was determined using the acute myelocytic leukemia (AML) cell line MV4-11 (ATCC) in a 3-day proliferation assay. MV4-11 cells were maintained in RPMI 1640 media supplemented with 10% FBS at 37° C. and an atmosphere of 5% CO2. For compound testing, compound dilutions series were prepared in DMSO via a 3-fold serial dilution from 2 mM to 0.001 mM in 384-well white flat bottom plates. The final compound concentrations in the wells were 10, 3.3, 1.1, 0.37, 0.12, 0.041, 0.013 and 0.0045 μM. MV4-11 cells were plated at a density of 3000 cells/well in final volume of 50 μl culture media and incubated for 72 hours. […] Luminescent signal from the CellTiter-Glo assay was read on an EnVision multilabel plate reader (PerkinElmer). Values for the concentration that inhibited cell growth by 50% (gIC50) between the DMSO control and background control (no cells) were determined using IDBS Activity Base software with a four parameter logistic curve fit by the equation y=A+((B−A)/(1+((C/x)^D))), wherein A denotes the bottom plateau of the curve, B denotes the top plateau of the curve, C denotes the x value at the middle of the curve, D denotes the slope factor, x denotes the original known x values, and y denotes the original known y values. Data was fitted using the Levenburg Marquardt algorithm.

| Structure (SMILES) | IC50 [1] [nM] | IC50 [2] [nM] |
| --- | --- | --- |
| COC(=O)N1c2ccc(-c3cnn(C4CC5CNCC5C4)c3)c(Oc3ccc(F)cc3)c2CC[C@@H]1C (stereo partly drawn) [I-186, (2S)-methyl 5-(4-fluorophenoxy)-2-methyl-6-(1-(octahydrocyclopenta[c]pyrrol-5-yl)-1H-pyrazol-4-yl)-3,4-dihydroquinoline-1(2H)-carboxylate] | 100 to 1000 | < 500 |
| C[C@H]1CCc2c(ccc(-c3c[nH]nn3)c2Oc2ccccc2)N1C(=O)C1CC1 [I-187, (S)-cyclopropyl(2-methyl-5-phenoxy-6-(1H-1,2,3-triazol-4-yl)-3,4-dihydroquinolin-1(2H)-yl)methanone] | 100 to 1000 | < 500 |
| COC(=O)N1c2ccc(-c3cnn(C4CNC4)c3)c(Oc3ccc(F)c(F)c3)c2CC[C@@H]1C [I-192, (S)-methyl 6-(1-(azetidin-3-yl)-1H-pyrazol-4-yl)-5-(3,4-difluorophenoxy)-2-methyl-3,4-dihydroquinoline-1(2H)-carboxylate] | 100 to 1000 | < 500 |
| COC(=O)N1c2ccc(-c3cnn(C4CNC4)c3)c(Oc3ccccc3)c2CC[C@@H]1C [I-193, (S)-methyl 6-(1-(azetidin-3-yl)-1H-pyrazol-4-yl)-2-methyl-5-phenoxy-3,4-dihydroquinoline-1(2H)-carboxylate] | 100 to 1000 | < 500 |
| COc1ccccc1Oc1c(-c2cnn(C3CCNCC3)c2)ccc2c1CC[C@H](C)N2C(=O)C1CC1 [I-194, (S)-cyclopropyl(5-(2-methoxyphenoxy)-2-methyl-6-(1-(piperidin-4-yl)-1H-pyrazol-4-yl)-3,4-dihydroquinolin-1(2H)-yl)methanone] | 100 to 1000 | < 500 |
| COc1cccc(Oc2c(-c3cnn(C4CCNCC4)c3)ccc3c2CC[C@H](C)N3C(=O)C2CC2)c1 [I-195, (S)-cyclopropyl(5-(3-methoxyphenoxy)-2-methyl-6-(1-(piperidin-4-yl)-1H-pyrazol-4-yl)-3,4-dihydroquinolin-1(2H)-yl)methanone] | 100 to 1000 | < 500 |
| COc1ccc(Oc2c(-c3cnn(C4CCNCC4)c3)ccc3c2CC[C@H](C)N3C(=O)C2CC2)cc1 [I-196, (S)-cyclopropyl(5-(4-methoxyphenoxy)-2-methyl-6-(1-(piperidin-4-yl)-1H-pyrazol-4-yl)-3,4-dihydroquinolin-1(2H)-yl)methanone] | 100 to 1000 | < 500 |
| COC(=O)N1c2ccc(-c3cnn(C4CCNCC4)c3)c(Oc3ccccc3OC)c2CC[C@@H]1C [I-197, (S)-methyl 5-(2-methoxyphenoxy)-2-methyl-6-(1-(piperidin-4-yl)-1H-pyrazol-4-yl)-3,4-dihydroquinoline-1(2H)-carboxylate] | 100 to 1000 | < 500 |
| COC(=O)N1c2ccc(-c3cnn(C4CCNCC4)c3)c(Oc3cccc(OC)c3)c2CC[C@@H]1C [I-198, (S)-methyl 5-(3-methoxyphenoxy)-2-methyl-6-(1-(piperidin-4-yl)-1H-pyrazol-4-yl)-3,4-dihydroquinoline-1(2H)-carboxylate] | 100 to 1000 | < 500 |
| COC(=O)N1c2ccc(-c3cnn(C4CCNCC4)c3)c(Oc3ccc(OC)cc3)c2CC[C@@H]1C [I-199, (S)-methyl 5-(4-methoxyphenoxy)-2-methyl-6-(1-(piperidin-4-yl)-1H-pyrazol-4-yl)-3,4-dihydroquinoline-1(2H)-carboxylate] | 100 to 1000 | < 500 |
| C[C@H]1CCc2c(ccc(-c3cnn(C4CCNCC4)c3)c2Oc2cccc(C#N)c2)N1C(=O)C1CC1 [I-202, (S)-3-(1-(cyclopropanecarbonyl)-2-methyl-6-(1-(piperidin-4-yl)-1H-pyrazol-4-yl)-1,2,3,4-tetrahydroquinolin-5-yloxy)benzonitrile] | 100 to 1000 | < 500 |
| CC(=O)N1c2ccc(-c3cnn(C4CCNCC4)c3)c(Oc3ccccn3)c2CC[C@@H]1C [I-203, (S)-1-(2-methyl-6-(1-(piperidin-4-yl)-1H-pyrazol-4-yl)-5-(pyridin-2-yloxy)-3,4-dihydroquinolin-1(2H)-yl)ethanone] | 100 to 1000 | < 500 |
| C[C@H]1CCc2c(Oc3ccccc3)c(-c3cnn(C4CCNCC4)c3)cc(F)c2N1C(=O)C1CC1 [I-204, (S)-cyclopropyl(8-fluoro-2-methyl-5-phenoxy-6-(1-(piperidin-4-yl)-1H-pyrazol-4-yl)-3,4-dihydroquinolin-1 (2H)-yl)methanone] | 100 to 1000 | < 500 |
| COC(=O)N1c2c(F)cc(-c3cnn(C4CCNCC4)c3)c(Oc3ccccc3)c2CC[C@@H]1C [I-205, (S)-methyl 8-fluoro-2-methyl-5-phenoxy-6-(1-(piperidin-4-yl)-1H-pyrazol-4-yl)-3,4-dihydroquinoline-1(2H)-carboxylate] | 100 to 1000 | < 500 |

Continued, values first:

| IC50 [1] [nM] | IC50 [2] [nM] | Structure (SMILES) |
| --- | --- | --- |
| 100 to 1000 | < 500 | CC(=O)N1c2c(F)cc(-c3cnn(C4CCNCC4)c3)c(Oc3ccccc3)c2CC[C@@H]1C [I-206, (S)-1-(8-fluoro-2-methyl-5-phenoxy-6-(1-(piperidin-4-yl)-1H-pyrazol-4-yl)-3,4-dihydroquinolin-1 (2H)-yl)ethanone] |
| 100 to 1000 | < 500 | COc1cccc(Oc2c(-c3cnn(C4CCNCC4)c3)cc(F)c3c2CC[C@H](C)N3C(=O)C2CC2)c1 [I-207, (S)-cyclopropyl(8-fluoro-5-(3-methoxyphenoxy)-2-methyl-6-(1-(piperidin-4-yl)-1H-pyrazol-4-yl)-3,4-dihydroquinolin-1(2H)-yl)methanone] |
| 100 to 1000 | < 500 | C[C@H]1CCc2c(ccc(-c3cn(C)nn3)c2Oc2ccccc2)N1C(=O)C1CC1 [I-219, (S)-cyclopropyl(2-methyl-6-(1-methyl-1H-1,2,3-triazol-4-yl)-5-phenoxy-3,4-dihydroquinolin-1(2H)-yl)methanone] |
| 1000 to 10000 | < 500 | Cc1nnc(-c2ccc3c(c2Oc2ccccc2)CC[C@H](C)N3C(=O)C2CC2)s1 [I-220, (S)-cyclopropyl(2-methyl-6-(5-methyl-1,3,4-thiadiazol-2-yl)-5-phenoxy-3,4-dihydroquinolin-1(2H)-yl)methanone] |
| 100 to 1000 | < 500 | C[C@H]1CCc2c(ccc(-c3cn(C)cn3)c2Oc2ccccc2)N1C(=O)C1CC1 [I-221, (S)-cyclopropyl(2-methyl-6-(1-methyl-1H-imidazol-4-yl)-5-phenoxy-3,4-dihydroquinolin-1(2H)-yl)methanone] |
| 100 to 1000 | < 500 | COC(=O)N1c2ccc(-c3cnn(C4CCCS(=O)(=O)C4)c3)c(Oc3ccc(F)cc3)c2CC[C@@H]1C (stereo partly drawn) [I-222, Methyl (2S)-6-(1-(1,1-dioxidotetrahydro-2H-thiopyran-3-yl)-1H-pyrazol-4-yl)-5-(4-fluorophenoxy)-2-methyl-3,4-dihydroquinoline-1 (2H)-carboxylate] |
| 100 to 1000 | < 500 | COC(=O)N1c2ccc(-c3cnn(C4CS(=O)(=O)C4)c3)c(Oc3ccc(F)cc3)c2CC[C@@H]1C [I-223, methyl (S)-6-(1-(1,1-dioxidothietan-3-yl)-1H-pyrazol-4-yl)-5-(4-fluorophenoxy)-2-methyl-3,4-dihydroquinoline-1(2H)-carboxylate] |
| 100 to 1000 | < 500 | C[C@H]1CCc2c(ccc(-c3cnn(C4CS(=O)(=O)C4)c3)c2Oc2ccc(F)cc2)N1C(=O)C1CC1 [I-229, 3-[4-[(2S)-1-cyclopropanecarbonyl-5-(4-fluorophenoxy)-2-methyl-1,2,3,4-tetrahydroquinolin-6-yl]-1H-pyrazol-1-yl]-1λ^6-thietane-1,1-dione] |
| 100 to 1000 | < 500 | C[C@H]1CCc2c(ccc(-c3cnn(C4CS(=O)(=O)C4)c3)c2Oc2ccccc2)N1C(=O)C1CC1 [I-230, 3-[4-[(2S)-1-cyclopropanecarbonyl-2-methyl-5-phenoxy-1,2,3,4-tetrahydroquinolin-6-yl]-1H-pyrazol-1-yl]-1λ^6-thietane-1,1-dione] |
